Experimental data published in patent US11970494B2, “6-heteroaryloxy benzimidazoles and azabenzimidazoles as JAK2 inhibitors” (Ajax Therapeutics, Inc., priority 2021, dated 2024).

Target: T1, JAK2 (JH1 domain-catalytic, Y1007F,Y1008F) kinase (Homo sapiens, UniProt O60674, Y1007F/Y1008F)
T1 construct: made in house; host or cells: transiently transfected HEK293 cells
Assay: JAK2 Binding Assay (JAK2 JH1 Domain Binding Assay)
Conditions: JAK2 JH1 domain binding, qPCR detection; read-out: JAK2 Kd

T1 sequence (O60674 849-1124 Y1007F/Y1008F limits assumed): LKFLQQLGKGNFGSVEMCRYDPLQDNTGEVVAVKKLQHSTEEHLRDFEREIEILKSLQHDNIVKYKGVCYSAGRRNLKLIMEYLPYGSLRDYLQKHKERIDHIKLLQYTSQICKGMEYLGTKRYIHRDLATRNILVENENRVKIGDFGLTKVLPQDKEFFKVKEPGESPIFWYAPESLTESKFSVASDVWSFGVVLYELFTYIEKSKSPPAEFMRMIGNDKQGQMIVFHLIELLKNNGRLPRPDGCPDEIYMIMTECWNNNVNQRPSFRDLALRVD

Row | Structure (SMILES) | Kd [µM]
1 | Cn1cc(C(F)(F)F)cc(Nc2nc3ncc(Oc4ccnc(NC(=O)C[C@@H]5CCCCO5)c4)c(C#N)c3n2C)c1=O (single isomer, unassigned) [Example I-74-a] | < 0.01
2 | CN1CCO[C@H](CC(=O)Nc2cc(Oc3cnc4nc(Nc5cc(C(F)(F)F)cn(C)c5=O)n(C)c4c3Cl)ccn2)C1 (single isomer, unassigned) [Example I-78-a] | < 0.01
3 | CN1CCO[C@@H](CC(=O)Nc2cc(Oc3cnc4nc(Nc5cc(C(F)(F)F)cn(C)c5=O)n(C)c4c3Cl)ccn2)C1 (single isomer, unassigned) [Example I-78-b] | < 0.01
4 | CN1CCO[C@H](CC(=O)Nc2cc(Oc3cnc4nc(Nc5cc(C(F)(F)F)cn(C)c5=O)n(C)c4c3C#N)ccn2)C1 (single isomer, unassigned) [Example I-90-a] | < 0.01
5 | CC(=O)Nc1cc(Oc2cnc3nc(Nc4cc([C@H]5CCOC5)nc(C(F)(F)F)c4)n(C)c3c2Cl)ccn1 (single isomer, unassigned) [Example I-91-a] | < 0.01
6 | CC(=O)Nc1cc(Oc2cnc3nc(Nc4cc([C@@H]5CCOC5)nc(C(F)(F)F)c4)n(C)c3c2Cl)ccn1 (single isomer, unassigned) [Example I-91-b] | < 0.01
7 | CC(=O)Nc1cc(Oc2cnc3nc(Nc4cc([C@H]5CCOC5)nc(C(F)(F)F)c4)n(C)c3c2C#N)ccn1 (single isomer, unassigned) [Example I-95-i] | < 0.01
8 | CC(=O)Nc1cc(Oc2cnc3nc(Nc4cc([C@H]5CCCN5C)cc(C(F)(F)F)c4)n(C)c3c2Cl)ccn1 (single isomer, unassigned) [Example I-102-a] | < 0.01
9 | CC(=O)Nc1cc(Oc2cnc3nc(Nc4cc([C@@H]5CCCN5C)cc(C(F)(F)F)c4)n(C)c3c2Cl)ccn1 (single isomer, unassigned) [Example I-102-b] | < 0.01
10 | CC(=O)Nc1cc(Oc2cnc3nc(Nc4ccc([C@H]5CCCN5C)c(C(F)(F)F)c4)n(C)c3c2Cl)ccn1 (single isomer, unassigned) [Example I-108-a] | < 0.01
11 | CNC(=O)Nc1cc(Oc2cnc3nc(Nc4cc(C(F)(F)F)cn(C)c4=O)n(C)c3c2C#N)ccn1 [Example I-5, 1-(4-((7-cyano-1-methyl-2-((1-methyl-2-oxo-5-(trifluoromethyl)-1,2-dihydropyridin-3-yl)amino)-1H-imidazo[4,5-b]pyridin-6-yl)oxy)pyridin-2-yl)-3-methylurea] | < 0.01
12 | Cn1cc(C(F)(F)F)cc(Nc2nc3ncc(Oc4ccnc(NC(=O)N5CC(O)C5)c4)c(C#N)c3n2C)c1=O [Example I-8, N-(4-((7-cyano-1-methyl-2-((1-methyl-2-oxo-5-(trifluoromethyl)-1,2-dihydropyridin-3-yl)amino)-1H-imidazo[4,5-b]pyridin-6-yl)oxy)pyridin-2-yl)hydroxyazetidine-1-carboxamide] | < 0.01
13 | COC(=O)Nc1cc(Oc2cnc3nc(Nc4cc(C(F)(F)F)n(C5CC6(COC6)C5)n4)n(C)c3c2Cl)ccn1 [Example I-10, Methyl(4-((2-((1-(2-oxaspiro[3.3]heptan-6-yl)-5-(trifluoromethyl)-1H-pyrazol-3-yl)amino)-7-chloro-1-methyl-1H-imidazo[4,5-b]pyridin-6-yl)oxy)pyridin-2-yl)carbamate] | < 0.01
14 | COCCOC(=O)Nc1cc(Oc2cnc3nc(Nc4cc(C(F)(F)F)cn(C)c4=O)n(C)c3c2C#N)ccn1 [Example I-12, 2-methoxyethyl(4-((7-cyano-1-methyl-2-((1-methyl-2-oxo-5-(trifluoromethyl)-1,2-dihydropyridin-3-yl)amino)-1H-imidazo[4,5-b]pyridin-6-yl)oxy)pyridin-2-yl)carbamate] | < 0.01
15 | CO[C@@H]1CCN(C(=O)Nc2cc(Oc3cnc4nc(Nc5cc(C(F)(F)F)cn(C)c5=O)n(C)c4c3C#N)ccn2)C1 [Example I-13, (R)-N-(4-((7-cyano-1-methyl-2-((1-methyl-2-oxo-5-(trifluoromethyl)-1,2-dihydropyridin-3-yl)amino)-1H-imidazo[4,5-b]pyridin-6-yl)oxy)pyridin-2-yl)methoxypyrrolidine-1-carboxamide] | < 0.01
16 | Cn1cc(C(F)(F)F)cc(Nc2nc3ncc(Oc4ccnc(NC(=O)OC5COC5)c4)c(C#N)c3n2C)c1=O [Example I-16, Oxetan-3-yl(4-((7-cyano-1-methyl-2-((1-methyl-2-oxo-5-(trifluoromethyl)-1,2-dihydropyridin-3-yl)amino)-1H-imidazo[4,5-b]pyridin-6-yl)oxy)pyridin-2-yl)carbamate] | < 0.01
17 | Cn1cc(C(F)(F)F)cc(Nc2nc3ncc(Oc4ccnc(NC(=O)O[C@H]5CCOC5)c4)c(C#N)c3n2C)c1=O [Example I-17, (S)-Tetrahydrofuran-3-yl(4-((7-cyano-1-methyl-2-((1-methyl-2-oxo-5-(trifluoromethyl)-1,2-dihydropyridin-3-yl)amino)-1H-imidazo[4,5-b]pyridin-6-yl)oxy)pyridin-2-yl)carbamate] | < 0.01
18 | CN(C)C(=O)Nc1cc(Oc2cnc3nc(Nc4cc5n(n4)CCCC5(F)F)n(C)c3c2C#N)ccn1 [Example I-21, 3-(4-((7-cyano-2-((4,4-difluoro-4,5,6,7-tetrahydropyrazolo[1,5-a]pyridin-2-yl)amino)-1-methyl-1H-imidazo[4,5-b]pyridin-6-yl)oxy)pyridin-2-yl)-1,1-dimethylurea] | < 0.01
19 | COC(=O)Nc1cc(Oc2cnc3nc(Nc4cc5n(n4)CCCC5(F)F)n(C)c3c2C#N)ccn1 [Example I-22, Methyl(4-((7-cyano-2-((4,4-difluoro-4,5,6,7-tetrahydropyrazolo[1,5-a]dpyridin-2-yl)amino)-1-methyl-1H-imidazo[4,5-b]pyridin-6-yl)oxy)pyridin-2-yl)carbamate] | < 0.01

Continued, values first:

Row | Kd [µM] | Structure (SMILES)
20 | < 0.01 | CN1CCO[C@@H](CC(=O)Nc2cc(Oc3cnc4nc(Nc5cc(C(F)(F)F)cn(C)c5=O)n(C)c4c3C#N)ccn2)C1 (single isomer, unassigned) [Example I-90-b]
21 | < 0.01 | CC(=O)Nc1cc(Oc2cnc3nc(Nc4cc([C@@H]5CCOC5)nc(C(F)(F)F)c4)n(C)c3c2C#N)ccn1 (single isomer, unassigned) [Example I-95-ii]
22 | < 0.01 | CC(=O)Nc1cc(Oc2cnc3nc(Nc4ccc([C@@H]5CCCN5C)c(C(F)(F)F)c4)n(C)c3c2Cl)ccn1 (single isomer, unassigned) [Example I-108-b]
23 | < 0.01 | CC(=O)Nc1cc(Oc2cnc3nc(Nc4ccc([C@H]5CCCN5C)c(C(F)(F)F)c4)n(C)c3c2C#N)ccn1 (single isomer, unassigned) [Example I-109-a]
24 | < 0.01 | CC(=O)Nc1cc(Oc2cnc3nc(Nc4ccc([C@@H]5CCCN5C)c(C(F)(F)F)c4)n(C)c3c2C#N)ccn1 (single isomer, unassigned) [Example I-109-b]
25 | < 0.01 | CN1CCN(C(=O)Nc2cc(Oc3cnc4nc(Nc5cc(C(F)(F)F)cn(C)c5=O)n(C)c4c3C#N)ccn2)CC1 [Example I-6, N-(4-((7-cyano-1-methyl-2-((1-methyl-2-oxo-5-(trifluoromethyl)-1,2-dihydropyridin-3-yl)amino)-1H-imidazo[4,5-b]pyridin-6-yl)oxy)pyridin-2-yl)-4-methylpiperazine-1-carboxamide]
26 | < 0.01 | COC1CN(C(=O)Nc2cc(Oc3cnc4nc(Nc5cc(C(F)(F)F)cn(C)c5=O)n(C)c4c3C#N)ccn2)C1 [Example I-9, N-(4-((7-cyano-1-methyl-2-((1-methyl-2-oxo-5-(trifluoromethyl)-1,2-dihydropyridin-3-yl)amino)-1H-imidazo[4,5-b]pyridin-6-yl)oxy)pyridin-2-yl)-3-methoxyazetidine-1-carboxamide]
27 | < 0.01 | Cn1cc(C(F)(F)F)cc(Nc2nc3ncc(Oc4ccnc(NC(=O)N5CCCC5)c4)c(C#N)c3n2C)c1=O [Example I-11, N-(4-((7-cyano-1-methyl-2-((1-methyl-2-oxo-5-(trifluoromethyl)-1,2-dihydropyridin-3-yl)amino)-1H-imidazo[4,5-b]pyridin-6-yl)oxy)pyridin-2-yl)pyrrolidine-1-carboxamide]
28 | < 0.01 | CN(C)CCOC(=O)Nc1cc(Oc2cnc3nc(Nc4cc(C(F)(F)F)cn(C)c4=O)n(C)c3c2Cl)ccn1 [Example I-19, 2-(Dimethylamino)ethyl(4-((7-chloro-1-methyl-2-((1-methyl-2-oxo-5-(trifluoromethyl)-1,2-dihydropyridin-3-yl)amino)-1H-imidazo[4,5-b]pyridin-6-yl)oxy)pyridin-2-yl)carbamate]
29 | < 0.01 | Cn1cc(C(F)(F)F)cc(Nc2nc3ncc(Oc4ccnc(NC(=O)OCCO)c4)c(C#N)c3n2C)c1=O [Example I-20, 2-Hydroxyethyl(4-((7-cyano-1-methyl-2-((1-methyl-2-oxo-5-(trifluoromethyl)-1,2-dihydropyridin-3-yl)amino)-1H-imidazo[4,5-b]pyridin-6-yl)oxy)pyridin-2-yl)carbamate]
30 | < 0.01 | Cn1c(Nc2cc3n(n2)CCCC3(F)F)nc2ncc(Oc3ccnc(NC(=O)N4CCCC4)c3)c(C#N)c21 [Example I-23, N-(4-((7-cyano-2-((4,4-difluoro-4,5,6,7-tetrahydropyrazolo[1,5-a]pyridin-2-yl)amino)-1-methyl-1H-imidazo[4,5-b]pyridin-6-yl)oxy)pyridin-2-yl)pyrrolidine-1-carboxamide]
31 | 0.01 to 0.05 | CN1CCN(C(=O)Nc2cc(Oc3cnc4nc(Nc5cc6n(n5)CCCC6(F)F)n(C)c4c3C#N)ccn2)CC1 [Example I-24, N-(4-((7-cyano-2-((4,4-difluoro-4,5,6,7-tetrahydropyrazolo[1,5-a]pyridin-2-yl)amino)-1-methyl-1H-imidazo[4,5-b]pyridin-6-yl)oxy)pyridin-2-yl)-4-methylpiperazine-1-carboxamide]
32 | 0.01 to 0.05 | Cn1c(Nc2cc3n(n2)CCCC3(F)F)nc2ncc(Oc3ccnc(NC(=O)N4CCOCC4)c3)c(C#N)c21 [Example I-25, N-(4-((7-cyano-2-((4,4-difluoro-4,5,6,7-tetrahydropyrazolo[1,5-a]pyridin-2-yl)amino)-1-methyl-1H-imidazo[4,5-b]pyridin-6-yl)oxy)pyridin-2-yl)morpholine-4-carboxamide]
